The values that follow come from US10752637B2, “Bis-diox(ol)ane compounds” (Koninklijke Coöperatie Cosun U.A., priority 2016, dated 2020).

Molecules are shown by their SMILES. In brackets after ≈: the same amount, converted by molar mass.

A short description of the data set: water-solubility of the product.

In the case of `CC1(C)OC(C2OC(C)(C)O[C@H]2C(=O)NCCO)[C@@H](C(=O)NCCO)O1` (some centres unmarked) [GalX-di-ethanolamide], the water-solubility entry (in water, at ambient temperature) was “approximately 25 wt. %”. In addition, the solubility (water) was around 350 mg/mL (≈ 930 mM).

One may read the solubility as how much of the substance goes into solution per volume.
